Measured values: patent US11787785B2 (NOVARTIS AG, priority 2021, dated 2023)

Target: T1, WIZ protein (HiBit-WIZ fusion protein) (Homo sapiens, UniProt O95785+Q96SW2)
T1 construct: expressed in transfected cells
Experiment: Quantification of WIZ protein levels in HiBit tag fusion protein assay (WIZ HiBit assay in 293T cells)
Type: cell-based
Conditions: for Dmax at 25 µM / remaining activity at 25 µM: HEK-293T, 293T cells; for Dmax at 25 µM: 100 − Amax, read-out: % degradation of WIZ (100 − Amax); for remaining activity at 25 µM: DMSO-normalized, curve-fitted percentage of WIZ-HiBit remaining at 25 uM, read-out: WIZ Amax; for DC50: WIZ HiBit assay in 293T cells, 10-point, 5-fold dose response, highest concentration 25 μM, about 18 hours, read-out: WIZ AC50
In short: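 HiBit-tagged WIZ (N-terminal tag, HSVTK promoter) stably expressed single-copy in 293T cells; 10-point 1:5 compound series, top 25 μM, ~18 h at 37 °C. Lytic HiBit/LgBit luminescence read; Amax = curve-fitted % WIZ-HiBit remaining at 25 μM, DMSO normalized to 100%.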

T1 sequence (O95785 whole entry, the tested form may be a part): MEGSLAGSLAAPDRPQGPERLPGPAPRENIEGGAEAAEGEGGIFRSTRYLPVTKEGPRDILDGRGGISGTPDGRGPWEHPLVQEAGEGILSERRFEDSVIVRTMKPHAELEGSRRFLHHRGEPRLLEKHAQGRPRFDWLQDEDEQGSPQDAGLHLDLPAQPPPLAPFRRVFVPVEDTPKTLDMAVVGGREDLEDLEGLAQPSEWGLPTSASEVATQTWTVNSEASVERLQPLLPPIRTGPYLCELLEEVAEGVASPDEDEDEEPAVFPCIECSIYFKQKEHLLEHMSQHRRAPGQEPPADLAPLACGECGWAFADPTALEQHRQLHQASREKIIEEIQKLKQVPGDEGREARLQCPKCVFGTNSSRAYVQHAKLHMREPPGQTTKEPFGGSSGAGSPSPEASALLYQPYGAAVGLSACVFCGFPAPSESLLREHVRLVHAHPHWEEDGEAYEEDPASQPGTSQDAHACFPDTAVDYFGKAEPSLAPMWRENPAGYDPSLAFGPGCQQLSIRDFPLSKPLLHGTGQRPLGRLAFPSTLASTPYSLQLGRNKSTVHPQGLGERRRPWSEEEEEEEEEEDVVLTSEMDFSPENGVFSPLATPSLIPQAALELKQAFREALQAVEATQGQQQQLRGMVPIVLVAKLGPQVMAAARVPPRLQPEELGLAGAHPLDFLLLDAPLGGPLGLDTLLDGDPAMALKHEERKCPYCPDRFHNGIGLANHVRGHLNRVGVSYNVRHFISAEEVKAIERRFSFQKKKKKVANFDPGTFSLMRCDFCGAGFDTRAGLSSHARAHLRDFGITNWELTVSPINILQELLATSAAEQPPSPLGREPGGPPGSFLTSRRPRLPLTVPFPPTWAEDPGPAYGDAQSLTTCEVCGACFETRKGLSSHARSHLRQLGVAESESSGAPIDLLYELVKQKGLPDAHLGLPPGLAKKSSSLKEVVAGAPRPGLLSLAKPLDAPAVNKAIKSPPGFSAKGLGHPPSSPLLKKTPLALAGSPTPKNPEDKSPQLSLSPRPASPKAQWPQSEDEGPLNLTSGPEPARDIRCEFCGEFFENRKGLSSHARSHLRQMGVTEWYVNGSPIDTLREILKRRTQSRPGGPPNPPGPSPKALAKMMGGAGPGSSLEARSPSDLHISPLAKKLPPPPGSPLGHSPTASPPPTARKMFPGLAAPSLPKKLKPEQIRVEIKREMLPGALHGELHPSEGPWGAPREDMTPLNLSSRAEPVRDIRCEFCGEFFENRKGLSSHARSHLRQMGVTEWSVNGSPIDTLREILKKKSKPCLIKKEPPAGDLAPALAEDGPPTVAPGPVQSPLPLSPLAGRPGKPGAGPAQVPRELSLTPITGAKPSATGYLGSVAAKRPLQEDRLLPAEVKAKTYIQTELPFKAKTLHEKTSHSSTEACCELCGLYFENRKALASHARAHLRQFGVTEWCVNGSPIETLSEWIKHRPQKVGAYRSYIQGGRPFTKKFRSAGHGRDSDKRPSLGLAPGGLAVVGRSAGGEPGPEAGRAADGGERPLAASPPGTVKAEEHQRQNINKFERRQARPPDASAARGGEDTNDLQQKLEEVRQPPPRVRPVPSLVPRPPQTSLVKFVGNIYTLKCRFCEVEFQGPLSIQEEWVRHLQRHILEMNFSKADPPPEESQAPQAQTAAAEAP
T1 sequence (Q96SW2 whole entry, the tested form may be a part): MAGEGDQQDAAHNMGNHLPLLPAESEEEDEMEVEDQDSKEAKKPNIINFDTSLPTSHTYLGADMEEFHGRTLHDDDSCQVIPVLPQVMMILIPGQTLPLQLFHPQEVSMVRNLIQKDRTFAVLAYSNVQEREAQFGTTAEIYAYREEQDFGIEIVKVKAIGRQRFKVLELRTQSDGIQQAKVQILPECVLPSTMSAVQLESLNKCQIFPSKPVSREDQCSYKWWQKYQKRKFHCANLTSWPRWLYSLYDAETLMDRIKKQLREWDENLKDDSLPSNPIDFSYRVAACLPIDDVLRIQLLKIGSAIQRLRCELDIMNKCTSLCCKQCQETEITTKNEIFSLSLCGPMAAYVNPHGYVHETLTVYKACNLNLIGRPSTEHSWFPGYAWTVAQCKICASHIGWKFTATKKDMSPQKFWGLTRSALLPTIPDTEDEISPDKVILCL
T1 sequence (Q16531 whole entry partner, the tested form may be a part): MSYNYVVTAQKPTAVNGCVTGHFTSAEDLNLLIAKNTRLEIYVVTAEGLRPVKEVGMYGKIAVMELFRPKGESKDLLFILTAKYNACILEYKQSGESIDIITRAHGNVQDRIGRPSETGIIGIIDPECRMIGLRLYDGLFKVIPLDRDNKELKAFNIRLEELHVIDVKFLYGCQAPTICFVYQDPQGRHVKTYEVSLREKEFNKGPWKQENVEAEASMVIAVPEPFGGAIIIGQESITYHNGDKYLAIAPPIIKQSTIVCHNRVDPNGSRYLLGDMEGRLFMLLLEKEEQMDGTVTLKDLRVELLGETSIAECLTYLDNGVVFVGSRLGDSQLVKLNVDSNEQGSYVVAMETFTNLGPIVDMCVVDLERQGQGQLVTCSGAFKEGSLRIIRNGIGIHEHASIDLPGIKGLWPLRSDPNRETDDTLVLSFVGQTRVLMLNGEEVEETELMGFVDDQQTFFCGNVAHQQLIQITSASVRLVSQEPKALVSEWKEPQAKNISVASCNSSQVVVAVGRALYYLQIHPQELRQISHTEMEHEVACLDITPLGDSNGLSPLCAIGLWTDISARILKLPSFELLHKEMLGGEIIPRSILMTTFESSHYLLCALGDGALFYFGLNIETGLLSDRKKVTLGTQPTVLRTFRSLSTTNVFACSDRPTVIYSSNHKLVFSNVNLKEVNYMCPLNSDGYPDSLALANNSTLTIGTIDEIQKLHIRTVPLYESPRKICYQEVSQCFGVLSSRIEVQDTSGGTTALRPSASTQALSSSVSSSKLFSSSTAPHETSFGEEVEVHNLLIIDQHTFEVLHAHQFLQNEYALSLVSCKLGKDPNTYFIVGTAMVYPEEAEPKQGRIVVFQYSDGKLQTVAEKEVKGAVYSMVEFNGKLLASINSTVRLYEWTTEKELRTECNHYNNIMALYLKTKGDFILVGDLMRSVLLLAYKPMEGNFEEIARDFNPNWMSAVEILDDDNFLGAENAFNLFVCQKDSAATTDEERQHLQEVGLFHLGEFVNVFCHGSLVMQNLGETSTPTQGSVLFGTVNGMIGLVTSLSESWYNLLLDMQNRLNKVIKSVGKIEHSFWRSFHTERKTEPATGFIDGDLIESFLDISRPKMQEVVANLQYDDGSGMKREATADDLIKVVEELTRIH

| Dmax at 25 µM [%] | remaining activity at 25 µM [%] | DC50 [nM] | Structure (SMILES) |
| --- | --- | --- | --- |
| 76 | 24 | 48 | O=C1CCN(c2cnn3ccc(CN4CCN(CCc5ccccc5)CC4)cc23)C(=O)N1 [Example 178] |
| 66 | 34 | 1430 | O=C1CCN(c2cnn3ccc(CC4CCN(CCc5c[nH]cn5)CC4)cc23)C(=O)N1 [Example 120, 1-(5-((1-(2-(1H-imidazol-4-yl)ethyl)piperidin-4-yl)methyl)pyrazolo[1,5-a]pyridin-3-yl)dihydropyrimidine-2,4(1H,3H)-dione] |
| 45 | 55 | 854 | C[C@H]1CN(CC2CCC2)CCN1Cc1ccn2ncc(N3CCC(=O)NC3=O)c2c1 [Example 224] |
| 41 | 59 | 3820 | Cn1cnc(CN2CCN(Cc3ccn4ncc(N5CCC(=O)NC5=O)c4c3)CC2)c1 [Example 196, 1-(5-((4-((1-methyl-1H-imidazol-4-yl)methyl)piperazin-1-yl)methyl)pyrazolo[1,5-a]pyridin-3-yl)dihydropyrimidine-2,4(1H,3H)-dione] |
| 5 | 95 | 3200 | O=C1CCN(c2cnn3ccc(CN4C[C@@H]5C[C@H]4CN5CC4CCCCC4)cc23)C(=O)N1 [Example 236, 1-(5-(((1S,4S)-5-(cyclohexylmethyl)-2,5-diazabicyclo[2.2.1]heptan-2-yl)methyl)pyrazolo[1,5-a]pyridin-3-yl)dihydropyrimidine-2,4(1H,3H)-dione] |
| 78 | 21 | 4 | C[C@H]1CN(Cc2ccn3ncc(N4CCC(=O)NC4=O)c3c2)CCN1C[C@@H]1CCC(F)(F)C1 [Example 319, 1-(5-(((S)-4-(((R)-3,3-difluorocyclopentyl)methyl)-3-methylpiperazin-1-yl)methyl)pyrazolo[1,5-a]pyridin-3-yl)dihydropyrimidine-2,4(1H,3H)-dione] |
| 74 | 26 | 380 | C[C@H]1CN(Cc2ccn3ncc(N4CCC(=O)NC4=O)c3c2)CCN1CC1CCCO1 (stereo partly drawn) [Example 209] |

Continued, compound first:

| Structure (SMILES) | Dmax at 25 µM [%] | remaining activity at 25 µM [%] | DC50 [nM] |
| --- | --- | --- | --- |
| C[C@H]1CN(Cc2ccn3ncc(N4CCC(=O)NC4=O)c3c2)C[C@H](C)N1CC1CCCCC1 [Example 258, 1-(5-(((3S,5S)-4-(cyclohexylmethyl)-3,5-dimethylpiperazin-1-yl)methyl)pyrazolo[1,5-a]pyridin-3-yl)dihydropyrimidine-2,4(1H,3H)-dione] | 69 | 31 | 148 |
| O=C1CCN(c2cnn3ccc(CC4CCN(CC5CCCOC5)CC4)cc23)C(=O)N1 (stereo not drawn) [Example 7, 1-(5-((1-((tetrahydro-2H-pyran-3-yl)methyl)piperidin-4-yl)methyl)pyrazolo[1,5-a]pyridin-3-yl)dihydropyrimidine-2,4(1H,3H)-dione] | 86 | 14 | 23 |
| Cc1cn(-c2cnn3ccc(C[C@@H]4CCN(CC5CCC(F)(F)CC5)[C@@H](C)C4)cc23)c(=O)[nH]c1=O [Example 351, 1-(5-(((2S,4R)-1-((4,4-difluorocyclohexyl)methyl)-2-methylpiperidin-4-yl)methyl)pyrazolo[1,5-a]pyridin-3-yl)-5-methylpyrimidine-2,4(1H,3H)-dione] | 91 | 9 | 47 |
| O=C1CCN(c2cnn3ccc(CC4CCCN(CC5CCCCC5)CC4)cc23)C(=O)N1 (stereo not drawn) [Example 272, 1-(5-((1-(cyclohexylmethyl)azepan-4-yl)methyl)pyrazolo[1,5-a]pyridin-3-yl)dihydropyrimidine-2,4(1H,3H)-dione] | 69 | 31 | 25 |
| C[C@H]1CN(Cc2ccn3ncc(N4CCC(=O)NC4=O)c3c2)CCN1C1CC2(COC2)C1 [Example 332] | 49 | 51 | 22000 |
